Experimental data: ChEMBL document CHEMBL1201862, “PubChem BioAssay data set” (2004)
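Five compound concentrations were applied to cells in 96-well plates for 48 hours; endpoints were derived by simple linear interpolation of the resulting dose-response curve. GI50 marks 50% less growth.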 The source made the active and inactive calls. Rule as the data show it: active = GI50 up to about 1.1 µM and inactive = higher. Peptide text beside a SMILES is read from it. * marks the point of attachment. Boc = CC(C)(C)OC(=O)*

Tests used:
Assay in all cases: NCI tumour cell line growth inhibition, 48 h
[1] = system: A549
[2] = system: HOP-92
[3] = system: IGROV-1
[4] = system: K562
[5] = system: KM12
[6] = system: M14
[7] = system: MDA-MB-231
[8] = system: MDA-MB-435
[9] = system: MOLT-4
[10] = system: NCI-H226
[11] = system: NCI-H460
[12] = system: NCI-H522
[13] = system: OVCAR-3
[14] = system: RPMI-8226
[15] = system: SK-MEL-28
[16] = system: SK-OV-3
[17] = system: SNB-19
[18] = system: SR
[19] = system: U-251
[20] = system: UACC-257

Measured: GI50

Cc1cccc2c1CC(C1OC(=O)c3c(C)cccc31)C2=O (stereo not given)
inactive: [1] > 100 µM | [2] > 100 µM | [3] > 100 µM | [4] > 100 µM | [5] > 100 µM | [6] > 100 µM | [7] > 100 µM | [8] > 100 µM | [9] > 100 µM | [10] > 100 µM | [11] > 100 µM | [12] 15.7 µM | [13] > 100 µM | [14] 88.5 µM | [15] > 100 µM | [16] > 100 µM | [17] > 100 µM | [18] > 100 µM | [19] > 100 µM | [20] > 100 µM

O=C1O/C(=C\c2ccc(O)cc2)C(c2ccc(O)c(Cl)c2)=C1Cl
inactive: [1] 40.1 µM | [2] 26.5 µM | [3] 40.1 µM | [4] 57.1 µM | [5] 34 µM | [6] 35.7 µM | [7] 77.4 µM | [8] 27.4 µM | [9] 49.7 µM | [10] 58.1 µM | [11] 30.3 µM | [12] 23 µM | [13] 38.1 µM | [14] > 100 µM | [15] > 100 µM | [16] > 100 µM | [17] 76.9 µM | [18] 27.7 µM | [19] 60.5 µM | [20] 49.5 µM

COCN1CCN=c2c1c1c3c(c4ccccc4n23)CCC1
inactive: [1] > 100 µM | [2] > 100 µM | [3] > 100 µM | [4] > 100 µM | [5] > 100 µM | [6] > 100 µM | [7] > 100 µM | [8] > 100 µM | [9] > 100 µM | [10] 10.7 µM | [11] > 100 µM | [12] > 100 µM | [13] > 100 µM | [14] > 100 µM | [15] > 100 µM | [16] > 100 µM | [17] > 100 µM | [18] > 100 µM | [19] > 100 µM | [20] > 100 µM

c1ccc2c(CC3NCCN3)cccc2c1
inactive: [1] > 100 µM | [2] 46 µM | [3] > 100 µM | [4] > 100 µM | [5] > 100 µM | [6] > 100 µM | [7] > 100 µM | [8] > 100 µM | [9] > 100 µM | [10] > 100 µM | [11] > 100 µM | [12] > 100 µM | [13] > 100 µM | [14] > 100 µM | [15] > 100 µM | [16] > 100 µM | [17] > 100 µM | [18] > 100 µM | [19] > 100 µM | [20] > 100 µM

COC(=O)C(Cc1ccccc1)NC(=O)C(CS)NC(=O)OC(C)(C)C (stereo not drawn) (Boc-Cys-Phe-OMe; configuration not given here)
inactive: [1] > 100 µM | [2] > 100 µM | [3] > 100 µM | [4] 38.2 µM | [5] 94.4 µM | [6] > 100 µM | [7] 26.9 µM | [8] > 100 µM | [9] 8.55 µM | [10] > 100 µM | [11] > 100 µM | [12] > 100 µM | [13] 88.1 µM | [14] > 100 µM | [15] > 100 µM | [16] > 100 µM | [17] > 100 µM | [18] 27.2 µM | [19] > 100 µM | [20] > 100 µM
